Data: patent US11185073B2, “Microbiocidal quinoline (thio)carboxamide derivatives” (SYNGENTA PARTICIPATIONS AG, priority 2017, dated 2021)

Key:
[1] = system: Botryotinia fuckeliana (Botrytis cinerea); experiment: Botryotinia fuckeliana (Botrytis cinerea) / liquid culture (gray mould); format: cell-based; conditions: 72 h, growth inhibition photometrically 3-4 days after application, compared to untreated control
[2] = system: Glomerella lagenarium (Colletotrichum lagenarium); experiment: Glomerella lagenarium (Colletotrichum lagenarium) / liquid culture (anthracnose); format: cell-based; conditions: Colletotrichum orbiculare, growth inhibition photometrically 3-4 days after application, compared to untreated control
Fusarium culmorum [3] = experiment: microbe, parasite or virus in culture; format: cell-based; conditions: 72 h, read-out: control of Fusarium culmorum
Fusarium culmorum [4] = experiment: whole plant or invertebrate; format: in vivo; conditions: in Triticum aestivum, read-out: control of Fusarium culmorum
[5] = system: Gibberella zeae (Fusarium graminearum); experiment: whole plant or invertebrate; format: in vivo; conditions: in Triticum aestivum, read-out: control of Gibberella zeae
[6] = system: Monographella nivalis (Microdochium nivale); experiment: Monographella nivalis (Microdochium nivale) / liquid culture (foot rot cereals); format: cell-based; conditions: 96 h, growth inhibition photometrically 4-5 days after application, compared to untreated control
[7] = system: Magnaporthe grisea (Pyricularia oryzae); experiment: microbe, parasite or virus in culture; format: cell-based; conditions: 72 h, read-out: control of Magnaporthe grisea

SMILES	inhibition of growth at 20 ppm [1]	inhibition of growth at 20 ppm [2]	inhibition of growth at 20 ppm (Fusarium culmorum [3])	pest or weed control at 200 ppm (Fusarium culmorum [4])	pest or weed control at 200 ppm [5]	inhibition of growth at 20 ppm [6]	inhibition of growth at 20 ppm [7]	melting point
CC(C)(C)COCC(C)(CC(F)(F)F)NC(=O)c1cnc2c(F)cccc2c1 (stereo not shown) [E.001, N-[1-(2,2-dimethyl-propoxymethyl)-3,3,3-trifluoro-1-methyl-propyl]-8-fluoro-quinoline-3-carboxamide]	≥ 80%	≥ 80%	≥ 80%	≥ 80%	≥ 80%	≥ 80%	≥ 80%	74 to 78 °C
CC1(C)CC(OCC(C)(CC(F)(F)F)NC(=O)c2cnc3c(Cl)cccc3c2)C1 (stereo not shown) [E.002, 8-chloro-N-[1-[(3,3-dimethyl-cyclobutoxy)-methyl]-3,3,3-trifluoro-1-methylpropyl]-quinoline-3-carboxamide]	≥ 80%	≥ 80%	≥ 80%	≥ 80%	–	≥ 80%	≥ 80%	127 to 130 °C
CC(COC1CCC(F)(F)CC1)(CC(F)(F)F)NC(=O)c1cnc2c(F)cccc2c1 (stereo not shown) [E.003, N-[1-[(4,4-difluoro-cyclohexoxy)-methyl]-3,3,3-trifluoro-1-methyl-propyl]-8-fluoro-quinoline-3-carboxamide]	≥ 80%	≥ 80%	≥ 80%	≥ 80%	≥ 80%	≥ 80%	≥ 80%	42 to 44 °C
CC1(C)CC(OCC(C)(CC(F)(F)F)NC(=O)c2cnc3c(F)cccc3c2)C1 (stereo not shown) [E.004, N-[1-[(3,3-dimethyl-cyclobutoxy)-methyl]-3,3,3-trifluoro-1-methyl-propyl]-8-fluoro-quinoline-3-carboxamide]	≥ 80%	≥ 80%	≥ 80%	≥ 80%	–	≥ 80%	≥ 80%	80 to 84 °C
CC(COc1ccc(Cl)cc1)(CC(F)(F)F)NC(=O)c1cnc2c(F)cccc2c1 (stereo not shown) [E.005, N-[1-[(4-chloro-phenoxy)methyl]-3,3,3-trifluoro-1-methyl-propyl]-8-fluoro-quinoline-3-carboxamide]	≥ 80%	≥ 80%	≥ 80%	≥ 80%	–	≥ 80%	≥ 80%	94 to 96 °C
C[C@](COC1CCCCC1)(CC(F)(F)F)NC(=O)c1cnc2c(F)cccc2c1 [E.016, N-[(1R)-1-(cyclo-hexoxymethyl)-3,3,3-trifluoro-1-methyl-propyl]-8-fluoro-quinoline-3-carboxamide]	≥ 80%	≥ 80%	≥ 80%	≥ 80%	–	≥ 80%	≥ 80%	80 to 85 °C
CC(COC1CCCCCC1)(CC(F)(F)F)NC(=O)c1cnc2c(F)cccc2c1 (stereo not shown) [E.026, N-[1-(cyclohept-oxymethyl)-3,3,3-trifluoro-1-methyl-propyl)-8-fluoro-quinoline-3-carboxamide]	≥ 80%	≥ 80%	≥ 80%	≥ 80%	–	≥ 80%	≥ 80%	80 to 85 °C
CC(COC1CCCCC1)(CC(F)(F)F)NC(=O)c1cnc2c(F)cccc2c1 (stereo not shown) [E.027, N-[1-(cyclohexoxy-methyl)-3,3,3-trifluoro-1-methyl-propyl]-8-fluoro-quinoline-3-carboxamide]	≥ 80%	≥ 80%	≥ 80%	≥ 80%	≥ 80%	≥ 80%	≥ 80%	–
CC(C)CC(C)(COCc1ccccc1)NC(=O)c1cnc2c(F)cccc2c1 (stereo not shown) [E.030, N-[1-(benzyloxy-methyl)-1,3-dimethyl-butyl]-8-fluoro-quinoline-3-carboxamide]	≥ 80%	≥ 80%	≥ 80%	–	–	≥ 80%	≥ 80%	120 to 122 °C
COCC(C)(CC(C)C)NC(=O)c1cnc2c(F)cccc2c1 (stereo not shown) [E.032, 8-fluoro-N-[1-(methoxymethyl)-1,3-dimethyl-butyl]quinoline-3-carboxamide]	≥ 80%	–	≥ 80%	–	–	–	–	136 to 138 °C
